Assay results published in US20230399317A1, “COMPOUNDS AND METHODS FOR THE TREATMENT OF OCULAR DISORDERS” (Azura Ophthalmics Ltd., priority 2020, published 2023).

Experiments:
[1] = Aqueous hydrolysis stability assay, Method 1; assay type: physicochemical; conditions: 45 min; Method 1: 50 mM HEPES pH 7.5 or 1:1 acetonitrile:water, room temperature
Description: (§1) Determination of aqueous stability of the test compounds was performed using HPLC-MS or UPLC-MS. A test compound 10 mM stock solution was prepared in DMSO. Half-life (T1/2) of the parent conjugate is calculated using the peak area of the parent conjugate at each time point in the linear region of the log-linear plot.
10 μL of the DMSO stock solution was dissolved in 990 μL of 50 mM HEPES pH 7.5 buffer or 1:1 (v/v) of acetonitrile:water to make a 100 μM solution. Final DMSO concentration was 1%. The solution was kept at room temperature and injected without delay into the LCMS (Waters Xevo TQ-S or Micromass Ultima). Additional injections were performed at appropriate time points.

[2] = Rabbit Cornea Homogenate stability (esterase) assay, Method 1; assay type: in vitro ADME; conditions: for Esterase % Lifitegrast formation at 45 min: 37° C., Method 1 (50 mM HEPES pH 7.5); for Esterase % keratolytic agent formation at 45 min / API Formation rate (%/min): Method 1
Description: (§2) Determining Rabbit Cornea Homogenate stability of the test compounds was performed using HPLC-MS or UPLC-MS. The assay was performed at two concentrations of Rabbit Cornea Homogenate (0.15 mg/mL and 0.45 mg/mL total protein) so that any hydrolysis observed can be assigned as esterase dependent or not.
(§3) Three to five rabbit corneas (e.g. New Zealand Whites (NZW) or Dutch Belted (DB)) of approx. 50 mg each were sliced and scraped with a scalpel and tweezers until reduced to small (1-3 mm), thin pieces. These were transferred into a glass vial containing approximately 2 mL of cold DPBS pH 7.4 buffer.
(§4) Sample was cooled intermittently on ice and shear homogenized for 3 minutes, then centrifuged for 3 min at 13,000 g. The supernatant was pipetted off into a vial, and total protein concentration determined at 280 nm. Sample was stored at −78° C.
10 mM Compound stocks were diluted to 100 μM in a 96 deep-well plate: 10 μL of 10 mM Compound stock was added to 990 μL 50 mM HEPES, pH 7.5 buffer. Compounds were further diluted to 10 μM: 100 μL of 100 μM compound was added to 900 μL 50 mM HEPES, pH 7.5 buffer. Esterase homogenate was diluted to 300 ng/μL and 900 ng/μL.
A heater shaker was set to 37° C. Into a suitable 96 well plate (Run Plate), 75 μL of 300 or 900 ng/μL esterase homogenate was pipetted into each of the required wells (2 min, 5 min, 10 min, 20 min and 45 min). The plate was sealed and then warmed at 37° C. for 5 min.
Another 96 well PCR plate was put on ice (Kill Plate). To this was added 100 μL of MeCN to each well, labelled 0 min 2 min, 5 min, 10 min, 20 min and 45 min. The plate was covered to minimize evaporation.
For the T=0 sample only, to the 100 μL cold MeCN stop solution was added 50 μL of 300 or 900 ng/μL esterase homogenate followed by 50 μL of 10 μM compound solution. For the remaining timepoints, 75 μL of 10 μM compound solution was added to the Run Plate starting from T=45 min row and ending with T=2 min row. At the appropriate time point, 100 μL of the assay mixture was added to the matching kill plate well containing 100 μL of cold MeCN. Samples were analyzed as soon as practicable by LCMS (Waters Xevo TQ-S or Micromass Ultima).
Parent conjugate and parent concentrations were determined against appropriate standard response curves and the half-life (T½) of the parent conjugate was calculated using the peak area of the parent conjugate at each time point in the linear region of the log-linear plot.

[3] = Aqueous hydrolysis stability assay, Method 2; assay type: physicochemical; conditions: Method 2: DPBS pH 7.4, 37° C.
Description: as §1
10 μL of the DMSO stock solution is dissolved in 990 μL of DPBS pH 7.4 buffer to prepare 100 μM solution. A further dilution is made by dissolving 75 μL of 100 μM stock solution into 225 μL of DPBS. Final DMSO concentration is 0.25%. The solution is kept at 37° C. and injected without delay into the LCMS (Waters Xevo XSQ-ToF). Additional injections are performed at appropriate time points.

[4] = Rabbit Cornea Homogenate stability (esterase) assay, Method 2; assay type: in vitro ADME; conditions: for Esterase % Lifitegrast formation at 45 min: 37° C., Method 2 (DPBS pH 7.4); for API Formation rate (%/min): Method 2
Description: as §2, §3, §4
10 mM Compound DMSO stocks were diluted to 10 μM in a glass vial: 10 μL of 10 mM Compound stock was added to 9,990 μL DPBS, pH 7.4 buffer. Esterase homogenate was diluted to 300 ng/μL and 900 ng/μL in DPBS. […]
A heater shaker was set to 37° C. Into a suitable 96 well plate (Run Plate), 80 μL of 300 or 900 ng/μL esterase homogenate was pipetted into two rows as compounds were analyzed in duplicate (0 min, 2 min, 5 min, 10 min, 20 min and 45 min). The plate was sealed and then warmed at 37° C. for 5 min.
Two 96 shallow-well plates were placed on ice (Kill Plates). To these, 180 μL of 60:40 MeCN-H2O+0.1% acetic acid were added to required rows. The plates were sealed to minimise evaporation.
To both rows of the Run Plate, 80 μL of 10 μM compound solution was added. At the appropriate time point, 20 μL of the assay mixture was added to the matching kill plate well containing 180 μL of 60:40 cold MeCN-H2O+0.1% acetic acid. For lipoic acid analysis, samples were analysed as soon as practicable by LCMS (Waters Xevo TQ-S). For parent conjugate and parent analysis the samples were diluted further 1 in 10: 20 μL supernatant was added to 180 μL of 50:50 MeCN—H2O.
Parent conjugate, parent and keratolytic concentrations were determined against appropriate standard response curves and the half-life (T½) of the parent conjugate was calculated using the peak area or the measured concentration of the parent conjugate at each time point in the linear region of the log-linear plot.

human T-cell line = conditions: in vitro; cited from earlier work
[5] = tested on: human peripheral blood mononuclear cells; conditions: in vitro; cited from earlier work
[6] = tested on: patients with dry eye and delayed tear clearance; conditions: 0.5% ophthalmic suspension, QID, 4 weeks, 64 patients (Pflugfelder et al 2004); cited from earlier work
[7] = Cornea Homogenate Conc 0.15 mg/mL
[8] = Cornea Homogenate Conc 0.45 mg/mL

In the case of CC(=O)N[C@@H](CS)C(=O)OC(C)OC(=O)[C@H](Cc1cccc(S(C)(=O)=O)c1)NC(=O)c1c(Cl)cc2c(c1Cl)CCN(C(=O)c1ccc3ccoc3c1)C2 (stereo partly drawn) [Compound 5], the “Hydrolytic % Lifitegrast formation at [time]” value [1] is reported as “C [45 min] (percent API formation >4%)”, the “Esterase % Lifitegrast formation at 45 min” value [2, 7] is reported as “A (percent active pharmaceutical ingredient (API) formation <25%)” and the “Esterase % keratolytic agent formation at 45 min” value [2, 7] is reported as “A (percent active pharmaceutical ingredient (API) formation <25%)”. For the same compound, the “API Formation rate (%/min)” value [2, 7] was “a (API formation rate <0.5%/min)”, the “Esterase % Lifitegrast formation at 45 min” value [2, 8] was “A (percent active pharmaceutical ingredient (API) formation <25%)” and the “Esterase % keratolytic agent formation at 45 min” value [2, 8] was “A (percent active pharmaceutical ingredient (API) formation <25%)”. For the same compound, the “API Formation rate (%/min)” value [2, 8] was “a (API formation rate <0.5%/min)”.

For CC(=O)SCC(=O)OC(C)OC(=O)[C@H](Cc1cccc(S(C)(=O)=O)c1)NC(=O)c1c(Cl)cc2c(c1Cl)CCN(C(=O)c1ccc3ccoc3c1)C2 (stereo partly drawn) [Compound 31], the “Hydrolytic % Lifitegrast formation at [time]” value ([3]; 60 min) was “C [60 min] (percent API formation >4%)”, the “Esterase % Lifitegrast formation at 45 min” value [4, 7] was “D (percent API formation >75%)” and the “API Formation rate (%/min)” value [4, 7] was “d (API formation rate >1.5%/min)”. The “Esterase % Lifitegrast formation at 45 min” value [4, 8] was “D (percent API formation >75%)” and the “API Formation rate (%/min)” value [4, 8] was “d (API formation rate >1.5%/min)”.

With CC(OC(=O)CCC(=O)O)OC(=O)[C@H](Cc1cccc(S(C)(=O)=O)c1)NC(=O)c1c(Cl)cc2c(c1Cl)CCN(C(=O)c1ccc3ccoc3c1)C2 (stereo partly drawn) [Compound 45] the “Hydrolytic % Lifitegrast formation at [time]” value ([3]; 44 min) was “C [44 min] (percent API formation >4%)”, the “Esterase % Lifitegrast formation at 45 min” value [4, 7] was “C (percent API formation 51% to 75%)” and the “API Formation rate (%/min)” value [4, 7] was “c (API formation rate 1.0-1.5%/min)”. The “Esterase % Lifitegrast formation at 45 min” value [4, 8] was “C (percent API formation 51% to 75%)” and the “API Formation rate (%/min)” value [4, 8] was “c (API formation rate 1.0-1.5%/min)”.

With CC(OC(=O)OCCOC(=O)CCCC[C@H]1CCSS1)OC(=O)[C@H](Cc1cccc(S(C)(=O)=O)c1)NC(=O)c1c(Cl)cc2c(c1Cl)CCN(C(=O)c1ccc3ccoc3c1)C2 (stereo partly drawn) [Compound 46] the “Esterase % Lifitegrast formation at 45 min” value [4, 7] was “A (percent active pharmaceutical ingredient (API) formation <25%)”, the “API Formation rate (%/min)” value [4, 7] was “a (API formation rate <0.5%/min)” and the “Esterase % Lifitegrast formation at 45 min” value [4, 8] was “A (percent active pharmaceutical ingredient (API) formation <25%)”. The “API Formation rate (%/min)” value [4, 8] was “a (API formation rate <0.5%/min)”.

For CC(OC(=O)OCCCOC(=O)CCCC[C@@H]1CCSS1)OC(=O)[C@H](Cc1cccc(S(C)(=O)=O)c1)NC(=O)c1c(Cl)cc2c(c1Cl)CCN(C(=O)c1ccc3ccoc3c1)C2 (stereo partly drawn) [Compound 47], the “Esterase % Lifitegrast formation at 45 min” value [4, 7] was “A (percent active pharmaceutical ingredient (API) formation <25%)”, the “API Formation rate (%/min)” value [4, 7] was “a (API formation rate <0.5%/min)” and the “Esterase % Lifitegrast formation at 45 min” value [4, 8] was “A (percent active pharmaceutical ingredient (API) formation <25%)”. For the same compound, the “API Formation rate (%/min)” value [4, 8] was “a (API formation rate <0.5%/min)”.

With CC(OC(=O)CCC(=O)OC(C)(C)C)OC(=O)[C@H](Cc1cccc(S(C)(=O)=O)c1)NC(=O)c1c(Cl)cc2c(c1Cl)CCN(C(=O)c1ccc3ccoc3c1)C2 (stereo partly drawn) [Compound 48] the “Esterase % Lifitegrast formation at 45 min” value [4, 7] was “B (percent API formation 25% to 50%)”, the “API Formation rate (%/min)” value [4, 7] was “b (API formation rate 0.5-1.0%/min)” and the “Esterase % Lifitegrast formation at 45 min” value [4, 8] was “C (percent API formation 51% to 75%)”. The “API Formation rate (%/min)” value [4, 8] was “c (API formation rate 1.0-1.5%/min)”.

In the case of CC(=O)N[C@@H](CSSC[C@H](NC(C)=O)C(=O)OC(C)OC(=O)[C@H](Cc1cccc(S(C)(=O)=O)c1)NC(=O)c1c(Cl)cc2c(c1Cl)CCN(C(=O)c1ccc3ccoc3c1)C2)C(=O)OC(C)OC(=O)[C@H](Cc1cccc(S(C)(=O)=O)c1)NC(=O)c1c(Cl)cc2c(c1Cl)CCN(C(=O)c1ccc3ccoc3c1)C2 (stereo partly drawn) [Compound 49], the “Esterase % Lifitegrast formation at 45 min” value [4, 7] is reported as “A (percent active pharmaceutical ingredient (API) formation <25%)”, the “API Formation rate (%/min)” value [4, 7] is reported as “a (API formation rate <0.5%/min)” and the “Esterase % Lifitegrast formation at 45 min” value [4, 8] is reported as “A (percent active pharmaceutical ingredient (API) formation <25%)”. For the same compound, the “API Formation rate (%/min)” value [4, 8] was “a (API formation rate <0.5%/min)”.

In the case of CS(=O)(=O)c1cccc(C[C@H](NC(=O)c2c(Cl)cc3c(c2Cl)CCN(C(=O)c2ccc4ccoc4c2)C3)C(=O)O)c1 [lifitegrast], the “inhibition of T-cell adhesion to ICAM-1” value (human T-cell line) is listed as “may inhibit T-cell adhesion to ICAM-1” and the “inhibition of secretion of inflammatory cytokines” value [5] is listed as “may inhibit secretion of inflammatory cytokines”.

In the case of CCOC(=O)O[C@]1(C(=O)OCCl)CC[C@H]2[C@@H]3CCC4=CC(=O)C=C[C@]4(C)[C@H]3[C@@H](O)C[C@@]21C [loteprednol etabonate], the “improving some signs and symptoms versus vehicle” value [6] is given as “more effective than its vehicle”.
